What is called IC50 is the concentration that gives 50% inhibition. A higher IC50 goes with weaker potency. A word on the DC50: it is the midpoint of the concentration-degradation curve. Low readings indicate degradation at low concentration, high ones degradation only at high concentration. The term Dmax denotes the largest share of the target that was removed.

One experiment addresses T1, IRAK4 kinase (Homo sapiens, UniProt Q9NWZ3).
T1 sequence (Q9NWZ3 1-460): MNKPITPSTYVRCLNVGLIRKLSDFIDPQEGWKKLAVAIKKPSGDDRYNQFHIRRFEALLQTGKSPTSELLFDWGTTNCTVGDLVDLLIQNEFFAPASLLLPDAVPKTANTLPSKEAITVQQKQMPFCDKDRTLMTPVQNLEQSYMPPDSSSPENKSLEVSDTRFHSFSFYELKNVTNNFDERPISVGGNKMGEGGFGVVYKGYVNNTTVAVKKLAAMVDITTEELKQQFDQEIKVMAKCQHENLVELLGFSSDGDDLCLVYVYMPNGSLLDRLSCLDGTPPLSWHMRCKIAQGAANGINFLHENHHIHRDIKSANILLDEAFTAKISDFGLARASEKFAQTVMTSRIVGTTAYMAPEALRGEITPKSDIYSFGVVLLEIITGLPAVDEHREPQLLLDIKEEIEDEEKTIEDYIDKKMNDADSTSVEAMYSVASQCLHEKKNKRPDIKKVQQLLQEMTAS
As to the kind of experiment: IRAK4 kinase activity test (KinEASE-STK S1 HTRF kit). Type of experiment: biochemical. Conditions: 2.5 nM kinase, 1 μM biotinylated polypeptide substrate, 7 μM ATP, 37° C. 120 min. The protocol: KinEASE-STK S1 serine/threonine kinase kit (Cisbio) was used to detect the inhibitory effect of the compound on IRAK4 kinase activity. The specific method was: the compound was dissolved in dimethyl sulfoxide, and then it was diluted with the buffer solution of the kit by equal gradient to make the final concentration range of the tested compound in the reaction system 10000 nM-0.038 nM, then 2.5 nM kinase, 1 μM biotinylated polypeptide substrate and 7 μM adenosine triphosphate (ATP) were added in sequence and incubated at 37° C. for 120 min. Subsequently, anti-phosphorylated serine/threonine antibody coupled with europium element compound and modified XL665 streptavidin were added to the reaction system to terminate the reaction. After incubating at room temperature for 1 h, the fluorescence intensity of each well at the emission wavelength of 620 nm and 665 nm and the excitation wavelength of 337 nm was determined in HTRF mode on the microplate reader EnVision(PerkinElmer), the ratio value was calculated using the formula Ratio=(665 nm/620 nm)×10^4. By comparing with the fluorescence intensity ratio of the control group, the inhibition rate of the compound at each concentration was calculated, and then the IC50 value of the compound was obtained by fitting the nonlinear curve with the logarithmic concentration-inhibition rate by GraphPad Prism 7.
(In general: In TR-FRET formats the signal depends on donor and acceptor labels being close together.)

Experiment [1] deals with T2, IRAK4 protein in THP-1 cells (Homo sapiens, UniProt Q9NWZ3).
T2 construct: endogenous in cells; host or cells: THP-1
T2 sequence (Q9NWZ3 1-460): T1 sequence (Q9NWZ3 1-460)
As to the kind of experiment: Degradation of IRAK4 in THP-1 cells (Western blot). Type of experiment: cell-based. To be noted: 24 hours, compound 1-3000 nM. The protocol: Each well of the 24-well cell culture plate was inoculated with 0.95 mL THP-1 cells (stem cell bank of Chinese academy of sciences) with a cell density of 5×10^5 cells/well. The cell plate was placed in a 5% carbon dioxide incubator and cultured overnight at 37° C., then 50 μL compound in dimethyl sulfoxide was added. The final concentration of the compound was in the range of 1-3000 nM. After continuous cultivation for 24 hours, the cells were collected into a 1.5 mL centrifuge tube, centrifuged at 1000 rpm and 4° C. for 5 minutes. Cell precipitation was cleaned twice with 1-DPBS, resuspended cells were lysed with 200 μL lysate (cell lysate was Western and IP cell lysate (Beyotime), supplemented with 1 mM mixture of phenylmethylsulfonyl fluoride and protease inhibitor (Beyotime)), left on ice for 30 minutes, then centrifuged at 14000 g at 4° C. for 10 minutes, and the supernatant was taken to detect IRAK4 protein level by Western blot.
Western blot method: The total protein concentration in the supernatant of cell lysis was determined by BCA protein quantitative kit (Tiangen). According to the concentration of total protein detected by BCA, the supernatant was adjusted to 0.2 μg/μL with PBS and 5× SDS-PAGE protein loading buffer (Beyotime), bathed in water at 100° C. for 10 minutes, then placed in ice bath for 5 minutes, centrifuged at 14000 g and 4° C. for 5 minutes, and then collected as WB loading sample. Prefabricated glue (KeyGEN) was used for protein electrophoresis with a loading amount of 10 μL (total protein 2 μg). After Tris-MOPS-SDS electrophoresis solution (Adamas), 120V constant pressure electrophoresis was performed. After electrophoresis, the protein on the adhesive strip was transferred to PVDF membrane with a constant current of […] for 50 minutes. After the membrane was transferred, the membrane was placed in 1×QuickBlock blocking buffer (Beyotime) and incubated for 30 minutes at room temperature. After blocking, PVDF membranes were incubated with IRAK4 primary antibody (Abcam) overnight at 4°, the membranes were washed with TBST buffer (2.4 g Tris, 8.8 g NaCl, 1.5 mL Tween 20, pH adjusted to 7.4, constant volume to 1 L) for 30 minutes, incubated with secondary antibody (Abcam) for 2 hours at room temperature, finally incubated with Clarity Western ECL Substrate(BIO-RAD) for 5 minutes for luminescence development, chemiluminescence imaging system (Clinx, chemiScope 6200 Touch) for development and protein mapping photography. The protein map was analyzed by Clinx chemiluminescence analysis software for grayscale values. Using the formula: grayscale correction value=(target protein grayscale value/corresponding internal reference grayscale value)×10^3, the grayscale correction value of each sample was calculated. The degradation rate was calculated by comparing with the grayscale correction value of the control group. Furthermore, DC50 and Dmax values of the compound were obtained by the nonlinear curve fitting with the logarithmic concentration-inhibition rate by GraphPad Prism 7.
In general terms: A western blot detects proteins with antibodies after separation by electrophoresis.

As for `COc1ccc(C(=O)N2CCC3(CCC(CCN4CCC(n5cc6cc(NC(=O)c7cccc(C(F)(F)F)n7)c(C(C)(C)O)cc6n5)CC4)CC3)CC2)cc1N1CCC(=O)NC1=O` [Example 21, N-(2-(1-(2-(3-(3-(2,4-dioxotetrahydro-pyrimidin-1 (2H)-yl)-4-me-thoxybenzoyl)-3-azaspiro [5.5]undec-9-yl)ethyl)piperidin-4-yl)-6-(2-hydroxyprop-2-yl)-2H-indazol-5-yl)-6-(trifluoro-methyl) pyridinecarbox-amide], the 50% inhibitory concentration (IC50) against IRAK4 kinase was 18 nM. In experiment [1], the half-maximal degradation concentration (DC50) stood at 4 nM and the Dmax is 90.1%.

`COc1ccc(C(=O)N2CCC(CCCN3CCC(n4cc5cc(NC(=O)c6cccc(C(F)(F)F)n6)c(C(C)(C)O)cc5n4)CC3)CC2)cc1N1CCC(=O)NC1=O` [Example 22, N-(2-(1-(3-(1-(3-(2,4-dioxotetrahydro-pyrimidin-1 (2H)-yl)-4-me-thoxybenzoyl)piperidin-4-yl)propyl)piperidin-4-yl)-6-(2-hydroxyprop-2-yl)-2H-inda-zol-5-yl)-6-(trifluoromethyl) pyridinecarbox-amide] gave an IC50 on IRAK4 kinase of 11.7 nM. In experiment [1], this compound returned a DC50 of 16.4 nM and a Dmax of 94.3%.

On to `COc1ccc(C(=O)N2CCC(OCCN3CCC(n4cc5cc(NC(=O)c6cccc(C(F)(F)F)n6)c(C(C)(C)O)cc5n4)CC3)CC2)cc1N1CCC(=O)NC1=O` [Example 23, N-(2-(1-(2-((1-(3-(2,4-dioxotetrahydro-pyrimidin-1 (2H)-yl)-4-me-thoxybenzoyl)piperidin-4-yl)oxy)ethyl)piperdin-4-yl)-6-(2-hydroxyprop-2-yl)-2H-inda-zol-5-yl)-6-(triflu-oromethyl) pyridinecarbox-amide], for which, at IRAK4 kinase, the concentration for half-maximal inhibition (IC50) came out at 8.5 nM. In experiment [1], this compound returned a 50% degradation concentration (DC50) of 32.4 nM and a maximal degradation (Dmax) of 97.6%.

On IRAK4 kinase, `CCOc1ccc(C(=O)N2CCC3(CC2)CC(CCN2CCC(n4cc5cc(NC(=O)c6cccc(C(F)(F)F)n6)c(C(C)(C)O)cc5n4)CC2)C3)cc1N1CCC(=O)NC1=O` [Example 25] registered an IC50 of 13.7 nM. In experiment [1], this compound registered a 50% degradation concentration (DC50) of 0.82 nM and a Dmax of 98%.

As to `COc1ccc(C(=O)N2CCC3(CC2)CC(CCN2CCC(n4cc5cc(NC(=O)c6cccc(C(F)(F)F)n6)c(C(C)(C)O)cc5n4)CC2)C3)cc1N1CCC(=O)NC1=O` [Example 26], the midpoint of inhibition against IRAK4 kinase, the IC50, lay at 6.5 nM. Moreover, in experiment [1], it took 1 nM to reach half-maximal degradation (DC50) and the maximal degradation (Dmax) is 86.9%.

At IRAK4 kinase, `CC(C)(O)c1cc2nn(C3CCN(CCC4CC5(CCN(C(=O)c6ccc(Cl)c(N7CCC(=O)NC7=O)c6)CC5)C4)CC3)cc2cc1NC(=O)c1cccc(C(F)(F)F)n1` [Example 27] gave an IC50 of 13.8 nM. For the same compound, in experiment [1], half-maximal degradation (DC50) was put at 3.5 nM and the maximal degradation (Dmax) came to 96.3%.

`COc1cc2nn(C3CCN(CC4CCC5(CC4)CCN(C(=O)c4ccc(OC)c(N6CCC(=O)NC6=O)c4)CC5)CC3)cc2cc1NC(=O)c1cccc(C(F)(F)F)n1` [Example 30, N-(2-(1-((3-(3-(2,4-dioxotetrahydro-pyrimidin-1 (2H)-yl)-4-me-thoxybenzoyl)-3-azaspiro[5.5]undec-9-yl)methyl)piperidin-4-yl)-6-methoxy-2H-indazol-5-yl)-6-(tri-fluoromethyl) pyridinecarbox-amide] came in with a concentration for half-maximal inhibition (IC50) on IRAK4 kinase of 16 nM. In experiment [1], the 50% degradation concentration (DC50) came to 2.3 nM and the Dmax was determined as 98.4%.

In the case of `COc1ccc(C(=O)N2CCC3(CCC(CN4CCC(n5cc6cc(NC(=O)c7cccc(C(F)(F)F)n7)c(C(C)(C)O)cc6n5)CC4)CC3)CC2)cc1N1CCC(=O)NC1=O` [Example 33, N-(2-(1-((3-(3-(2-4-dioxotetrahydro-pyrimidin-1 (2H)-yl)-4-me-thoxybenzoyl)-3-azaspiro [5.5]undec-9-yl)methyl)piperdin-4-yl)-6-(2-hydroxyprop-2-yl)-2H-indazol-5-yl)-6-(trifluoro-methyl) pyridinecarbox-amide], half-maximal inhibition against IRAK4 kinase (IC50) required 17.2 nM. In experiment [1], this compound came in with a DC50 of 2.1 nM and a Dmax of 96.6%.

With `CC(C)(O)c1cc2nn(C3CCN(CCC4CCN(C(=O)c5ccc(Cl)c(N6CCC(=O)NC6=O)c5)CC4)CC3)cc2cc1NC(=O)c1cccc(C(F)(F)F)n1` [Example 35], the concentration for half-maximal inhibition (IC50) at IRAK4 kinase worked out at 10.3 nM. In experiment [1], this compound returned a 50% degradation concentration (DC50) of 8.4 nM and a Dmax of 95.2%.

As for `CC(C)(O)c1cc2nn(C3CCN(CC4CC5(CCN(C(=O)c6ccc(Cl)c(N7CCC(=O)NC7=O)c6)CC5)C4)CC3)cc2cc1NC(=O)c1cccc(C(F)(F)F)n1` [Example 36, N-(2-(1-((7-(4-chloro-3-(2,4-dioxotetrahydro-pyrimidin-1 (2H)-yl)benzoyl)-7-azaspiro [3.5]non-2-yl)methyl)piperdin-4-yl)-6-(2-hydroxyprop-2-yl)-2H-indazol-5-yl)-6-(trifluoro-methyl) pyridinecarbox-amide], the 50% inhibitory concentration (IC50) against IRAK4 kinase is 11.8 nM. In experiment [1], this compound gave a DC50 of 4 nM and a Dmax of 92.5%.

For the compound `COc1cc2nn(C3CCN(CC4CC5(CCN(C(=O)c6ccc(Cl)c(N7CCC(=O)NC7=O)c6)CC5)C4)CC3)cc2cc1NC(=O)c1cccc(C(F)(F)F)n1` [Example 39, N-(2-(1-((7-(4-chloro-3-(2,4-dioxotetrahydro-pyrimidin-1 (2H)-yl)benzoyl)-7-azospiro [3.5]non-2-yl)methyl)piperidin-4-yl)-6-methoxy-2H-indazol-5-yl)-6-(trifluoromethyl) pyridinecarbox-amide], the concentration for half-maximal inhibition (IC50) on IRAK4 kinase was found to be 16.7 nM. Moreover, in experiment [1], half-maximal degradation (DC50) was put at 10.5 nM and the greatest degradation seen (Dmax) stood at 89.4%.

At IRAK4 kinase, `COc1cc2nn(C3CCN(CC4CCC5(CC4)CCN(C(=O)c4ccc(F)c(C6CCC(=O)NC6=O)c4)CC5)CC3)cc2cc1NC(=O)c1cccc(C(F)(F)F)n1` (stereo not drawn) [Example 42, N-(2-(1-((3-(3-(2,6-dioxopiperidin-3-yl)-4-fluoro-benzoyl)-3-azaspiro [5.5]undec-9-yl)methyl)piperidin-4-yl)-6-methoxy-2H-indazol-5-yl)-6-(trifluoromethyl) pyridinecarbox-amide] gave a half-inhibitory concentration (IC50) of 39.2 nM. In experiment [1], this compound showed a 50% degradation concentration (DC50) of 7.8 nM and a Dmax of 100%.

Regarding `COc1cc2nn(C3CCN(CCC4CC5(CCN(C(=O)c6ccc(Cl)c(N7CCC(=O)NC7=O)c6)CC5)C4)CC3)cc2cc1NC(=O)c1cccc(C(F)(F)F)n1` [Example 43, N-(2-(1-(2 (7-(4-chloro-3-(2,4-dioxotetrahydro-pyrimidin-1 (2H)-yl)benzoyl)-7-azospiro [3.5]non-2-yl)ethyl)piperidin-4-yl)-6-methoxy-2H-indazol-5-yl)-6-(trifluoromethyl) pyridinecarbox-amide], the midpoint of inhibition against IRAK4 kinase, the IC50, lay at 24.2 nM. In experiment [1], the DC50 was determined as 4.9 nM and the Dmax amounted to 98.7%.

Values taken from US20230234936A1, “COMPOUND FOR TARGETING AND DEGRADING PROTEIN, AND PREPARATION METHOD THEREFOR AND USE THEREOF” (SHANGHAI LEADINGTAC PHARMACEUTICAL CO., LTD., priority 2020, published 2023).
